Laboratory results: patent publication US8802597B2, “Herbicidal pyrimidines” (E I du Pont de Nemours and Company, priority 2003, dated 2014)

What was measured:
Test in all cases: Test A pre/postemergence
Assay type in all cases: in vivo
[1] = tested on: morningglory (Ipomoea spp.)
Protocol: (§1) Seeds of barnyardgrass (Echinochloa crus-galli), crabgrass (Digitaria sanguinalis), giant foxtail (Setaria faberi), morningglory (Ipomoea spp.), redroot pigweed (Amaranthus retroflexus) and velvetleaf (Abutilon theophrasti) were planted into a blend of loam soil and sand and treated preemergence with a directed soil spray using test chemicals formulated in a non-phytotoxic solvent mixture which included a surfactant. At the same time these species were also treated with postemergence applications of test chemicals formulated in the same manner.
(§2) Plants ranged in height from 2 to 10 cm and were in the 1- to 2-leaf stage for the postemergence treatment. Treated plants and untreated controls were maintained in a greenhouse for approximately ten days, after which time all treated plants were compared to untreated controls and visually evaluated for injury. Plant response ratings, summarized in Table A, are based on a 0 to 100 scale where 0 is no effect and 100 is complete control. A dash (-) response means no test results.

[2] = tested on: barnyardgrass (Echinochloa crus-galli)
Protocol: as §1, §2

[3] = tested on: giant foxtail (Setaria faberi)
Protocol: as §1, §2

[4] = tested on: velvetleaf (Abutilon theophrasti)
Protocol: as §1, §2

[5] = tested on: redroot pigweed (Amaranthus retroflexus)
Protocol: as §1, §2

[6] = tested on: crabgrass (Digitaria sanguinalis)
Protocol: as §1, §2

[7] = Postemergence, 125 g ai/ha, 0 to 100 scale (0 no effect, 100 complete control)
[8] = Postemergence, 500 g ai/ha, 0 to 100 scale (0 no effect, 100 complete control)
[9] = Preemergence, 125 g ai/ha, 0 to 100 scale where 0 is no effect and 100 is complete control, approximately ten days
[10] = Preemergence, 500 g ai/ha, 0 to 100 scale where 0 is no effect and 100 is complete control, approximately ten days

SMILES: CCOC(=O)c1nc(-c2cccc(Cl)c2)nc(N)c1Cl [Compound 100]
- Plant response rating, Morningglory [1, 7]: 40
- Plant response rating, Morningglory [1, 8]: 55
- Plant response rating, Morningglory [1, 9]: 0
- Plant response rating, Morningglory [1, 10]: 0
- Plant response rating, Barnyardgrass [2, 7]: 0
- Plant response rating, Barnyardgrass [2, 8]: 10
- Plant response rating, Barnyardgrass [2, 9]: 5
- Plant response rating, Barnyardgrass [2, 10]: 0
- Plant response rating, Foxtail, Giant [3, 7]: 0
- Plant response rating, Foxtail, Giant [3, 8]: 0
- Plant response rating, Foxtail, Giant [3, 9]: 0
- Plant response rating, Foxtail, Giant [3, 10]: 0
- Plant response rating, Velvetleaf [4, 7]: 50
- Plant response rating, Velvetleaf [4, 8]: 70
- Plant response rating, Velvetleaf [4, 9]: 0
- Plant response rating, Velvetleaf [4, 10]: 0
- Plant response rating, Pigweed [5, 7]: 10
- Plant response rating, Pigweed [5, 8]: 25
- Plant response rating, Pigweed [5, 9]: 20
- Plant response rating, Pigweed [5, 10]: 0
- Plant response rating, Crabgrass [6, 7]: 0
- Plant response rating, Crabgrass [6, 8]: 0
- Plant response rating, Crabgrass [6, 9]: 10
- Plant response rating, Crabgrass [6, 10]: 0

SMILES: CCOC(=O)c1nc(-c2cc(Br)cc(OC)c2)nc(N)c1Cl [Compound 101]
- Plant response rating, Morningglory [1, 7]: 0
- Plant response rating, Morningglory [1, 8]: 0
- Plant response rating, Morningglory [1, 9]: 0
- Plant response rating, Morningglory [1, 10]: 0
- Plant response rating, Barnyardgrass [2, 7]: 0
- Plant response rating, Barnyardgrass [2, 8]: 0
- Plant response rating, Barnyardgrass [2, 9]: 0
- Plant response rating, Barnyardgrass [2, 10]: 0
- Plant response rating, Foxtail, Giant [3, 7]: 0
- Plant response rating, Foxtail, Giant [3, 8]: 0
- Plant response rating, Foxtail, Giant [3, 9]: 0
- Plant response rating, Foxtail, Giant [3, 10]: 0
- Plant response rating, Velvetleaf [4, 7]: 0
- Plant response rating, Velvetleaf [4, 8]: 15
- Plant response rating, Velvetleaf [4, 9]: 0
- Plant response rating, Velvetleaf [4, 10]: 0
- Plant response rating, Pigweed [5, 7]: 0
- Plant response rating, Pigweed [5, 8]: 5
- Plant response rating, Pigweed [5, 9]: 0
- Plant response rating, Pigweed [5, 10]: 0
- Plant response rating, Crabgrass [6, 7]: 0
- Plant response rating, Crabgrass [6, 8]: 0
- Plant response rating, Crabgrass [6, 9]: 0
- Plant response rating, Crabgrass [6, 10]: 0

SMILES: CC(C)OC(=O)c1nc(-c2ccc(Cl)cc2)nc(N)c1Cl [Compound 102]
- Plant response rating, Morningglory [1, 7]: 0
- Plant response rating, Morningglory [1, 8]: 15
- Plant response rating, Morningglory [1, 9]: 0
- Plant response rating, Morningglory [1, 10]: 0
- Plant response rating, Barnyardgrass [2, 7]: 0
- Plant response rating, Barnyardgrass [2, 8]: 0
- Plant response rating, Barnyardgrass [2, 9]: 0
- Plant response rating, Barnyardgrass [2, 10]: 0
- Plant response rating, Foxtail, Giant [3, 7]: 0
- Plant response rating, Foxtail, Giant [3, 8]: 0
- Plant response rating, Foxtail, Giant [3, 9]: 0
- Plant response rating, Foxtail, Giant [3, 10]: 0
- Plant response rating, Velvetleaf [4, 7]: 45
- Plant response rating, Velvetleaf [4, 8]: 70
- Plant response rating, Velvetleaf [4, 9]: 10
- Plant response rating, Velvetleaf [4, 10]: 20
- Plant response rating, Pigweed [5, 7]: 50
- Plant response rating, Pigweed [5, 8]: 65
- Plant response rating, Pigweed [5, 9]: 10
- Plant response rating, Pigweed [5, 10]: 15
- Plant response rating, Crabgrass [6, 7]: 10
- Plant response rating, Crabgrass [6, 8]: 10
- Plant response rating, Crabgrass [6, 9]: 0
- Plant response rating, Crabgrass [6, 10]: 0

SMILES: CCOC(=O)c1nc(-c2ccc(OC(F)(F)F)cc2)nc(N)c1Cl [Compound 103]
- Plant response rating, Morningglory [1, 7]: 0
- Plant response rating, Morningglory [1, 8]: 0
- Plant response rating, Morningglory [1, 9]: 0
- Plant response rating, Morningglory [1, 10]: 0
- Plant response rating, Barnyardgrass [2, 7]: 0
- Plant response rating, Barnyardgrass [2, 8]: 0
- Plant response rating, Barnyardgrass [2, 9]: 0
- Plant response rating, Barnyardgrass [2, 10]: 0
- Plant response rating, Foxtail, Giant [3, 7]: 0
- Plant response rating, Foxtail, Giant [3, 8]: 0
- Plant response rating, Foxtail, Giant [3, 9]: 0
- Plant response rating, Foxtail, Giant [3, 10]: 0
- Plant response rating, Velvetleaf [4, 7]: 45
- Plant response rating, Velvetleaf [4, 8]: 70
- Plant response rating, Velvetleaf [4, 9]: 0
- Plant response rating, Velvetleaf [4, 10]: 10
- Plant response rating, Pigweed [5, 7]: 0
- Plant response rating, Pigweed [5, 8]: 20
- Plant response rating, Pigweed [5, 9]: 0
- Plant response rating, Pigweed [5, 10]: 10
- Plant response rating, Crabgrass [6, 7]: 0
- Plant response rating, Crabgrass [6, 8]: 0
- Plant response rating, Crabgrass [6, 9]: 0
- Plant response rating, Crabgrass [6, 10]: 0

SMILES: CCOC(=O)c1nc(-c2ccc(C(F)(F)F)cc2)nc(N)c1Cl [Compound 104]
- Plant response rating, Morningglory [1, 7]: 25
- Plant response rating, Morningglory [1, 8]: 40
- Plant response rating, Morningglory [1, 9]: 0
- Plant response rating, Morningglory [1, 10]: 0
- Plant response rating, Barnyardgrass [2, 7]: 0
- Plant response rating, Barnyardgrass [2, 8]: 10
- Plant response rating, Barnyardgrass [2, 9]: 0
- Plant response rating, Barnyardgrass [2, 10]: 5
- Plant response rating, Foxtail, Giant [3, 7]: 0
- Plant response rating, Foxtail, Giant [3, 8]: 5
- Plant response rating, Foxtail, Giant [3, 9]: 0
- Plant response rating, Foxtail, Giant [3, 10]: 5
- Plant response rating, Velvetleaf [4, 7]: 70
- Plant response rating, Velvetleaf [4, 8]: 80
- Plant response rating, Velvetleaf [4, 9]: 0
- Plant response rating, Velvetleaf [4, 10]: 10
- Plant response rating, Pigweed [5, 7]: 30
- Plant response rating, Pigweed [5, 8]: 45
- Plant response rating, Pigweed [5, 9]: 0
- Plant response rating, Pigweed [5, 10]: 10
- Plant response rating, Crabgrass [6, 7]: 15
- Plant response rating, Crabgrass [6, 8]: 30
- Plant response rating, Crabgrass [6, 9]: 0
- Plant response rating, Crabgrass [6, 10]: 10

SMILES: CCCOC(=O)c1nc(-c2ccc(Cl)cc2)nc(N)c1Cl [Compound 105]
- Plant response rating, Morningglory [1, 7]: 50
- Plant response rating, Morningglory [1, 8]: 70
- Plant response rating, Morningglory [1, 9]: 0
- Plant response rating, Morningglory [1, 10]: 0
- Plant response rating, Barnyardgrass [2, 7]: 10
- Plant response rating, Barnyardgrass [2, 8]: 25
- Plant response rating, Barnyardgrass [2, 9]: 0
- Plant response rating, Barnyardgrass [2, 10]: 0
- Plant response rating, Foxtail, Giant [3, 7]: 10
- Plant response rating, Foxtail, Giant [3, 8]: 10
- Plant response rating, Foxtail, Giant [3, 9]: 0
- Plant response rating, Foxtail, Giant [3, 10]: 0
- Plant response rating, Velvetleaf [4, 7]: 85
- Plant response rating, Velvetleaf [4, 8]: 95
- Plant response rating, Velvetleaf [4, 9]: 0
- Plant response rating, Velvetleaf [4, 10]: 0
- Plant response rating, Pigweed [5, 7]: 65
- Plant response rating, Pigweed [5, 8]: 90
- Plant response rating, Pigweed [5, 9]: 0
- Plant response rating, Pigweed [5, 10]: 0
- Plant response rating, Crabgrass [6, 7]: 20
- Plant response rating, Crabgrass [6, 8]: 45
- Plant response rating, Crabgrass [6, 9]: 0
- Plant response rating, Crabgrass [6, 10]: 0

SMILES: CCOC(=O)c1nc(-c2ccccc2F)nc(N)c1Cl [Compound 106]
- Plant response rating, Morningglory [1, 7]: 20
- Plant response rating, Morningglory [1, 8]: 35
- Plant response rating, Morningglory [1, 9]: 0
- Plant response rating, Morningglory [1, 10]: 0
- Plant response rating, Barnyardgrass [2, 7]: 0
- Plant response rating, Barnyardgrass [2, 8]: 5
- Plant response rating, Barnyardgrass [2, 9]: 0
- Plant response rating, Barnyardgrass [2, 10]: 5
- Plant response rating, Foxtail, Giant [3, 7]: 0
- Plant response rating, Foxtail, Giant [3, 8]: 0
- Plant response rating, Foxtail, Giant [3, 9]: 0
- Plant response rating, Foxtail, Giant [3, 10]: 0
- Plant response rating, Velvetleaf [4, 7]: 25
- Plant response rating, Velvetleaf [4, 8]: 55
- Plant response rating, Velvetleaf [4, 9]: 5
- Plant response rating, Velvetleaf [4, 10]: 30
- Plant response rating, Pigweed [5, 7]: 15
- Plant response rating, Pigweed [5, 8]: 70
- Plant response rating, Pigweed [5, 9]: 0
- Plant response rating, Pigweed [5, 10]: 30
- Plant response rating, Crabgrass [6, 7]: 0
- Plant response rating, Crabgrass [6, 8]: 0
- Plant response rating, Crabgrass [6, 9]: 0
- Plant response rating, Crabgrass [6, 10]: 0

SMILES: CCOC(=O)c1nc(-c2cccc(C(F)(F)F)c2)nc(N)c1Cl [Compound 107]
- Plant response rating, Morningglory [1, 7]: 0
- Plant response rating, Morningglory [1, 8]: 0
- Plant response rating, Morningglory [1, 9]: 0
- Plant response rating, Morningglory [1, 10]: 0
- Plant response rating, Barnyardgrass [2, 7]: 0
- Plant response rating, Barnyardgrass [2, 8]: 0
- Plant response rating, Barnyardgrass [2, 9]: 0
- Plant response rating, Barnyardgrass [2, 10]: 0
- Plant response rating, Foxtail, Giant [3, 7]: 0
- Plant response rating, Foxtail, Giant [3, 8]: 35
- Plant response rating, Foxtail, Giant [3, 9]: 0
- Plant response rating, Foxtail, Giant [3, 10]: 0
- Plant response rating, Velvetleaf [4, 7]: 35
- Plant response rating, Velvetleaf [4, 8]: 65
- Plant response rating, Velvetleaf [4, 9]: 0
- Plant response rating, Velvetleaf [4, 10]: 10
- Plant response rating, Pigweed [5, 7]: 10
- Plant response rating, Pigweed [5, 8]: 10
- Plant response rating, Pigweed [5, 9]: 0
- Plant response rating, Pigweed [5, 10]: 0
- Plant response rating, Crabgrass [6, 7]: 0
- Plant response rating, Crabgrass [6, 8]: 5
- Plant response rating, Crabgrass [6, 9]: 0
- Plant response rating, Crabgrass [6, 10]: 5

SMILES: CC(C)c1nc(N)c(Cl)c(C(=O)[O-])n1.[Na+] [Compound 109]
- Plant response rating, Morningglory [1, 7]: 70
- Plant response rating, Morningglory [1, 8]: 80
- Plant response rating, Morningglory [1, 9]: 30
- Plant response rating, Morningglory [1, 10]: 95
- Plant response rating, Barnyardgrass [2, 7]: 0
- Plant response rating, Barnyardgrass [2, 8]: 10
- Plant response rating, Barnyardgrass [2, 9]: 0
- Plant response rating, Barnyardgrass [2, 10]: 25
- Plant response rating, Foxtail, Giant [3, 7]: 0
- Plant response rating, Foxtail, Giant [3, 8]: 10
- Plant response rating, Foxtail, Giant [3, 9]: 0
- Plant response rating, Foxtail, Giant [3, 10]: 5
- Plant response rating, Velvetleaf [4, 7]: 25
- Plant response rating, Velvetleaf [4, 8]: 80
- Plant response rating, Velvetleaf [4, 9]: 15
- Plant response rating, Velvetleaf [4, 10]: 50
- Plant response rating, Pigweed [5, 7]: 60
- Plant response rating, Pigweed [5, 8]: 85
- Plant response rating, Pigweed [5, 9]: 50
- Plant response rating, Pigweed [5, 10]: 80
- Plant response rating, Crabgrass [6, 7]: 0
- Plant response rating, Crabgrass [6, 8]: 10
- Plant response rating, Crabgrass [6, 9]: 0
- Plant response rating, Crabgrass [6, 10]: 25
